Reference: patent US20080234345A1, “METHOD FOR REDUCING OR ALLEVIATING INFLAMMATION IN THE DIGESTIVE TRACT” (Gene Logic Inc., priority 2006, published 2008)

Legend:
[1] = system: DSS-induced colitis in Balb/c mice; assay: DSS-induced colitis in Balb/c mice (Example 7); format: in vivo; details: s.c. b.i.d., GL1001 300 mg/kg, sulfasalazine 150 mg/kg
Description: A study was designed with six groups of Balb/c mice: naïve control, DSS followed by vehicle, DSS followed by GL1001 30 mg/kg/day, DSS followed by GL1001 100 mg/kg/day, DSS followed by GL1001 300 mg/kg/day, and DSS followed by sulfasalazine 150 mg/kg/day. Administration of DSS was via drinking water, from day 1 to day 6 of the study. […] Administration of vehicle, GL1001 and sulfasalazine was subcutaneous, twice daily, from day 6 until termination of the study (day 16).
Body weight of each animal was measured at days 1, 3 and 5 (pre-initiation of GL1001 or sulfasalazine treatment) and at days 7, 9, 11 and 13 (post-initiation of GL1001 or sulfasalazine treatment). On these same days, disease activity measurements were recorded, including: • (a) rectal prolapse (0=no prolapse, 1=partial prolapse, 2=moderate prolapse, 3=full prolapse); • (b) stool consistency (0=solid pellet, 1=semi-solid, 2=soft stool, 3=diarrhea); and • (c) fecal occult blood (0=no blood present, 1=occult blood, 2=gross blood).
At termination of the study, colon length was determined and histological analysis was conducted as in Example 6.

UC = details: cited from earlier work
NF-κB = details: in CD; Guidi et al. (2005); cited from earlier work
CD = details: cited from earlier work

Molecule	fecal occult blood ([1]; day 7)	stool consistency ([1]; day 7)	percentage weight loss ([1]; day 9)	rectal prolapse ([1]; day 9)	distal colon crypt score [1]	distal colon inflammation score [1]	distal colon total histopathology score [1]	reduction in colon length [1]	response rates (UC)	NF-κB activity (NF-κB)	induction of remission rate (CD; CD, after a single dose) [%]	response rate (CD; CD, after a single dose) [%]	fistula responds (closes), patients (CD; fistulizing CD) [%]	patients who develop an abscess (CD; in vivo) [%]
O=C(O)c1cc(/N=N/c2ccc(S(=O)(=O)Nc3ccccn3)cc2)ccc1O [sulfasalazine, reference compound]	reduces	No significant effect	No significant effect	reduces	reduces	reduces	reduces	inhibits reduction	–	–	–	–	–	–
Infliximab: anti-TNFα monoclonal antibody	–	–	–	–	–	–	–	–	50-70%	decrease	50	80	68	12
